Measurements from patent US11771685B2, “Compounds for the treatment of neurological or mitochondrial diseases” (MUSC FOUNDATION FOR RESEARCH DEVELOPMENT, priority 2018, dated 2023).
Like-named read-outs stand apart in the source and are kept apart here.

Key:
[1] = In vivo pharmacokinetics in CD-1 mice; parameters: species or system mouse; conditions: for concentration at 24 hr: read-out: Clast
Experimental: (§1) PK studies on 3 and 25 were carried out in CD-1 mice. Three males were dosed via oral gavage needle for oral administration at 20 mg/kg (10 mL/kg) or via intravenous administration at 5 mg/kg (10 mL/kg). Blood samples were taken at time intervals between 5 min and 24 hr from each animal.
The PK studies of 1 were performed by WuXi AppTec and PK studies of 3 and 25 were performed by Touchstone Biosciences (Peng et al., 2006b; Peng et al., 2001; Peng et al., 2006a; Peng et al., 2009). Male CD-1 mice were fed a standard laboratory rodent diet and housed in individual cages on a 12 hr light and 12 hr dark cycle with room temperature maintained at 22±3° C. and relative humidity at 50±20%. Animals were typically fasted overnight before dosing, with food returned after the 6 hr blood samples were obtained. Water was provided ad libitum throughout the study. The dosing solution of each test compound was prepared in a desired oral or intravenous formulation. Three to four animals were dosed via gavage needle for oral administration at 10-20 mg/kg (10-20 mL/kg) or via tail vein injection for IV administration at 2-5 mg/kg (2-5 mL/kg). […] Fluid replacement (1.5 mL of 0.9% NaCl injection, USP) was administered subcutaneously once after the 2 hr blood sampling. Blood samples were collected in BD Microtainer tubes coated with anticoagulant, placed on ice, and within 30 min, centrifuged at 15,000 g for 5 min to obtain plasma samples. All plasma samples were stored at −70° C. until analysis.
Plasma samples were prepared as follows. Three volumes of acetonitrile containing internal standard was added to one volume of plasma to precipitate proteins. Samples were centrifuged (3000 g for 10 min) and supernatant removed for analysis by LC-MS/MS. Calibration standards and quality controls were made by preparation of a 1 mg/mL stock solution and subsequently a series of working solutions in methanol:water (1:1, v/v) which were spiked into blank plasma to yield a series of calibration standard samples in the range of 1.0 ng/mL to 10 μg/mL and quality control samples at three concentration levels (low, middle and high). All incurred PK/PD plasma samples were treated identically to the calibration standards and quality control samples. LC-MS-MS analysis was performed utilizing multiple reaction monitoring for detection of characteristic ions for each drug candidate, additional related analytes and internal standard.
Plasma concentrations were measured as described above to determine a concentration vs. time profile. The area under the plasma concentration vs time curve (AUC) was calculated using the linear trapezoidal method. Fitting of the data to obtain pharmacokinetic parameters was carried out using non-compartmental analysis. Key PK parameters reported following intravenous administration are as follows: terminal half-life t1/2, initial plasma concentration C0, area under the plasma concentration vs. time curve AUC, volume of distribution at steady-state Vss, total plasma clearance CLp, and mean residence time MRT. Key PK parameters reported following extravascular administration are as follows: terminal half-life t1/2, maximum plasma concentration Cmax, time to reach maximum plasma concentration tmax, area under the plasma concentration vs. time curve AUC, mean residence time MRT, and bioavailability F. All parameters are expressed for individual animals as well as mean, standard deviation, and coefficient of variation.

[2] = Clinical observations in dosed mice; assay type: in vivo; conditions: efficacy studies, 5% DMSO:95% Neobee formulation
Experimental: as §1
PO PK experiments were repeated for 25, with oral dosing at 20 mg/kg and 10 mL/kg of a suspension with 1% Tween 80:1% carboxymethylcellulose in water.
Table 2 provides a summary of efficacy studies in vivo in mice, and in rat brain slices, using the 5% DMSO:95% Neobee formulation.

[3] = test system: PTZ-induced seizure activity in zebrafish larvae; test: Zebrafish PTZ-induced seizure model; assay type: in vivo; conditions: Danio rerio, 7 dpf larvae, 1 hr pre-treatment, 10 mM PTZ; read-out: Anti-seizure activity: lowest tested dose with significant difference vs PTZ-only group
Experimental: The zebrafish PTZ-induced seizure model was used to determine the most promising compounds' in vivo efficacy. Zebrafish larvae (7 dpf) were treated with the compound for 1 hr prior to inducing seizures with PTZ. As established by previous larval zebrafish anti-seizure studies (Rahn et al., 2014; Hansen et al., 2004; Baraban et al., 2005), total distance traveled by each fish after seizure induction was measured and used as a proxy for seizure activity. Following collection of locomotor data, observation of a startle response and visual inspection for abnormal morphology confirmed that alterations in swim activity were not caused by compound toxicity.
We induced seizures in 7 dpf zebrafish larvae by the addition of […] PTZ as originally developed by Baraban et al., 2005. In a 48-well plate, one 7-dpf zebrafish was added per well. Larvae were dosed with each compound at a sub-lethal dose 1 hr prior to PTZ treatment. Two control rows were included with each experiment—tank water only control and PTZ only. Seizures were induced by adding PTZ to wells to yield a final concentration of 10 mM. After 5 min, the plate was transferred to the Daniovision instrument (Noldus Information Technology) and the chamber light was turned on. After 2 min, MediaRecorder (Noldus) was used to record video for 15 min. A small number of videos were acquired at 25 frames per second, but the majority of data were acquired at 60 frames per second. […] Ethovision XT software (Noldus) was used to track the fish movement from the video images in order to calculate the total distance traveled over 15 min. All experimental comparisons were made between animals from the same clutch.
Statistical analyses were performed with GraphPad Prism 6 software. For the in vitro HT22 oxytosis assay, dose-response data were fit using GraphPad Prism's log(inhibitor) vs normalized response-variable slope parameters to determine EC50 values and 95% confidence intervals. For the zebrafish locomotive anti-seizure activity data, multiple comparisons were made using a one-way analysis of variance (ANOVA) with a Kruskal-Wallis Test, followed by the Dunn's Method to determine significant differences between all pairs or between control and experimental groups using the Dunn Method for Joint Ranking. Differences were considered statistically significant when p<0.05. Data from zebrafish experiments are represented as scatter dot plots of individual measurements, with means±standard deviation indicated by bars.

[4] = intraperitoneal 20 mg/kg, 5% DMSO: 95% neobee
[5] = intravenous 5 mg/kg, 20% DMA: 40% PEG300: 40% H2O
[6] = male, CD-1, mouse, plasma, iv, 5 mg/kg, intravenous 5 mg/kg, 20% DMA: 40% PEG300: 40% H2O
[7] = male, CD-1, mouse, plasma, po, 20 mg/kg, oral 20 mg/kg, 5% DMSO: 95% Neobee
[8] = oral 20 mg/kg, 5% DMSO: 95% Neobee

SMILES: CC(C)CCNC1=CC(=O)c2ccccc2C1=O [Compound 17, 2-(Isopentylamino)naphthalene-1,4-dione]
- T1/2 [1, 4]: 3.38 h
- tlast [1, 4]: 24 h
- Clast [1, 5]: 0.154 ng/mL
- T1/2 [1, 5]: 4.47 h
- AUC(0-t) ([1]; male, CD-1, mouse, plasma, ip, 20 mg/kg, intraperitoneal 20 mg/kg, 5% DMSO: 95% neobee): 1720 ng·h/mL
- AUC(0-inf) [1, 6]: 637 ng·h/mL
- MRT inf [1, 6]: 0.874 h
- clearance ([1]; male, CD-1, mouse, plasma, iv, 5 mg/kg, intravenous 5 mg/kg, 20% DMA: 40% PEG300: 40% H2O, read-out: CLp): 131 mL/min/kg
- Vd ([1]; male, CD-1, mouse, plasma, iv, 5 mg/kg, intravenous 5 mg/kg, 20% DMA: 40% PEG300: 40% H2O, read-out: Vss): 6.89 L/kg
- AUC(0-inf) [1, 7]: 914 ng·h/mL
- MRT inf [1, 7]: 2.5 h
- Tmax [1, 7]: 0.25 h
- concentration at 24 hr ([1]; male, CD-1, mouse, plasma, intraperitoneal 20 mg/kg, 5% DMSO: 95% neobee): 1.95 ng/mL
- C0 ([1]; male, CD-1, mouse, plasma, intravenous 5 mg/kg, 20% DMA: 40% PEG300: 40% H2O): 1910 ng/mL
- concentration at 24 hr ([1]; male, CD-1, mouse, plasma, oral 20 mg/kg, 5% DMSO: 95% Neobee): 1.43 ng/mL
- Cmax [1, 8]: 1025 ng/mL
- F [1, 8]: 35.9%
- t1/2 [1, 8]: 5.28 h
- tlast [1, 8]: 24 h
- pigmented urine [2]: Pigmented urine was not seen
- minimal effective concentration [3]: 5 µM
